Measured values as given in US10391070B2, “Compositions and methods for treating neurological diseases or injury” (MUSC FOUNDATION FOR RESEARCH DEVELOPMENT, priority 2012, dated 2019).
Values joined by “and” are separate entries in the source; they are usually repeats but may differ in a detail not shown here. Equal entries are not always repeated.

Key:
[1] = tested on: zebrafish larvae; assay: Zebrafish larval toxicity (NOEC, lethal dose); assay type: in vivo; conditions: for Lethal dose / Highest concentration tested for anti-seizure activity: 7 dpf zebrafish larvae; for Lethal dose: up to 5 h treatment; for Highest concentration tested for anti-seizure activity: highest sub-lethal dose
[2] = Chronic toxicity evaluation in mice (blood count and chemistry); assay type: in vivo, mouse; conditions: for blood count and chemistry parameters versus vehicle / weight loss, signs of pain or distress: mice, 50 mg/kg i.p. daily, three weeks
Procedure: Adult (12 weeks of age) mice (Balb/cByJ, 17-20 g, Jackson Laboratory), were housed in temperature-controlled conditions under a light/dark photocycle with food and water supplied ad libitum. Mice were divided randomly into three groups. The first group (n=3) was injected i.p. with compound 2q at 50 mg/kg dissolved in sterile 5% DMSO, 95% Neobee (Spectrum Chemical) (Allen et al., 2006). The second group (n=3) was injected i.p. with compound 2j at 50 mg/kg dissolved in sterile 5% DMSO, 95% Neobee. The third, vehicle control group (n=2) was injected i.p. with an equivalent volume of sterile 5% DMSO, 95% Neobee. All animals were injected between 11:00 a.m. and 12:00 p.m. Animals were sacrificed by CO2 after three weeks of injections. Blood was collected by cardiac puncture and standard blood count and chemistry was evaluated by the MUSC/VA Veterinary Diagnostic Laboratory (Charleston, S.C.). All animal and treatment protocols were in compliance with the Guide for the Care and Use of Laboratory Animals as adopted and promulgated by the National Institutes of Health (Institute of Laboratory Animal Resources, 1996).
Preliminary in vivo toxicity was assessed for compounds 2q and 2j in mice. […] Adult mice were injected intraperitoneally (i.p.) daily. […] After three weeks of chronic, high dose injections, animals were sacrificed and standard blood count and chemistry analyses performed.

[3] = tested on: HT-22 neuronal cells; assay: Respirometry (OCR, ECAR; Seahorse XF-96); assay type: cell-based, mouse; design: ECAR (glycolysis), difference from control: unit not given here; conditions: HT-22 cells, mean±SEM; for basal cellular respiration, difference in OCR from control: 1 h treatment, OCR as percentage of pre-treatment value; for basal mitochondrial respiration, difference from control: basal minus non-mitochondrial (rotenone); for ATP-linked respiration, difference from control: basal minus oligomycin
Procedure: Oxygen consumption rates (OCR) and extracellular acidification rates (ECAR) of HT-22 neuronal cells were performed on the XF-96 Extracellular Flux Analyzer (Seahorse Bioscience) using standard methods (Beeson et al., 2010). In brief, cells were cultured in 96 well Seahorse plates in DMEM high glucose media (Invitrogen) supplemented with 10% FBS, 10 mM HEPES, and 1% antibiotic-antimycotic (Invitrogen). The media was replaced with DMEM media supplemented with 25 mM glucose, 10 mM sodium pyruvate, 31 mM NaCl, and 2 mM glutamine at pH 7.4. Each of the four drug ports on the Seahorse sensor cartridge were filled with test compound (media only, 5 μM NQN-1, 10 μM VK3 or 12.5 μM MB), 10 μM oligomycin, 1 μM FCCP, and 5 μM rotenone, which were injected into each well at 20, 80, 110, and 135 min, respectively. The pmol/min OCR rate for each well (9-52 wells/group) was measured. Wells were excluded from the analysis if their OCR values surpassed the Tukey Outlier Rule. In order to standardize the OCR rates across wells, the average OCR value at 17 min (last time point prior to injection of the test compounds) for each experimental group was calculated, and set to 100. All OCR values are given as a percentage of this pre-treatment value. […]

[4] = mouse blood chemistry, 50 mg/kg, 3 wks i.p., individual animals 1-3
[5] = mouse complete blood count, 50 mg/kg, 3 wks i.p., individual animals 1-3

C#CCNC1=CC(=O)c2ccccc2C1=O [Compound 2h, 2-(prop-2-yn-1-ylamino)naphthalene-1,4-dione]
Lethal dose [1]: >0.02 mM | Highest concentration tested for anti-seizure activity [1]: 0.02 mM

O=C1C=C(NCc2ccccc2)C(=O)c2ccccc21 [Compound 2j, 2-(benzylamino)naphthalene-1,4-dione]
blood count and chemistry parameters versus vehicle [2]: consistent with those of the vehicle control group | weight loss, signs of pain or distress [2]: no weight loss or outward signs of pain or distress | Lethal dose [1]: 0.012 mM | Highest concentration tested for anti-seizure activity [1]: 0.010 mM | basal cellular respiration, difference in OCR from control [3]: −4.14±2.9 | basal mitochondrial respiration, difference from control [3]: 9.09±3.13 | ATP-linked respiration, difference from control [3]: 6.58±3.28 | ECAR (glycolysis), difference from control [3]: 5.03±1.11

O=C1C=C(NCc2cccc(Cl)c2)C(=O)c2ccccc21 [Compound 2q, 2-((3-chlorobenzyl)amino)naphthalene-1,4-dione]
blood count and chemistry parameters versus vehicle [2]: consistent with those of the vehicle control group | weight loss, signs of pain or distress [2]: no weight loss or outward signs of pain or distress | ALP [2, 4]: 72 U/L and 80 U/L and 60 U/L | ALT [2, 4]: 34 U/L and 28 U/L and 33 U/L | AST [2, 4]: 89 U/L and 71 U/L and 78 U/L | Albumin [2, 4]: 3 g/dL and 3.2 g/dL and 2.8 g/dL | BUN [2, 4]: 19 mg/dL (2×) and 20 mg/dL | Creatinine [2, 4]: 0.16 mg/dL and 0.23 mg/dL and 0.18 mg/dL | Glucose [2, 4]: 195 mg/dL (2×) and 205 mg/dL | Total Bilirubin [2, 4]: 0.20 mg/dL | Total Protein [2, 4]: 5.2 g/dL and 5.3 g/dL and 4.9 g/dL | BA [2, 5]: 0.01 K/uL and 0.05 K/uL and 0.02 K/uL | EO [2, 5]: 0.10 K/uL and 0.17 K/uL and 0.01 K/uL | HCT [2, 5]: 51.1% and 53.2% and 51.3% | Hb [2, 5]: 13.9 g/dL (2×) and 14.5 g/dL | LY [2, 5]: 3.30 K/uL and 5.14 K/uL and 2.45 K/uL | MCH [2, 5]: 14.8 pg (2×) and 15.3 pg | MCHC [2, 5]: 27.2 g/dL and 27.3 g/dL and 27.1 g/dL | MCV [2, 5]: 54.4 fL and 56.2 fL and 54.8 fL | MO [2, 5]: 0.32 K/uL and 0.43 K/uL and 0.35 K/uL | MPV [2, 5]: 4.5 fL and 4.6 fL and 4.4 fL | NE [2, 5]: 5.55 K/uL and 3.03 K/uL and 3.78 K/uL | PLT [2, 5]: 1139 K/uL and 946 K/uL and 1050 K/uL | RBC [2, 5]: 9.39 M/uL and 9.46 M/uL and 9.37 M/uL | RDW [2, 5]: 17.8% and 17.7% and 17.4% | WBC [2, 5]: 9.28 K/uL and 8.82 K/uL and 6.62 K/uL | Lethal dose [1]: >0.02 mM | Highest concentration tested for anti-seizure activity [1]: 0.02 mM

CC1=CC(=O)c2ccccc2C1=O [VK3, menadione, reference compound]
Lethal dose [1]: 0.007 mM | Highest concentration tested for anti-seizure activity [1]: 0.006 mM | highest NOEC ([1]; zebrafish larvae): 10 µM | basal cellular respiration, difference in OCR from control [3]: 21.57±0.97 | basal mitochondrial respiration, difference from control [3]: elevated but failed to reach statistical significance | ATP-linked respiration, difference from control [3]: 12.2±3.12 | ECAR (glycolysis), difference from control [3]: 1.89±0.93
